Measurements as given in patent publication US8399381B2, “Condensed heterocyclic sulfonyl urea compound, a herbicide containing the same, and a method for weed control using the same” (Sumitomo Chemical Company, Limited, priority 2002, dated 2013).

What was measured:
[1] = test system: sulfonylurea herbicide-resistant Lindernia dubia subsp. major Pennell; assay: Paddy pot weeding test, flooded, two-leaf stage (Test Example 1); format: in vivo; conditions: 1 g/are, three weeks after treatment, resistant biotype, Kawanishi Town, Yamagata Pref.
From the text: (§1) A 5 cm×5 cm Jiffy Pot™ was charged with paddy soil, then water was introduced into each pot, seeds of sulfonylurea herbicide-sensitive Scirpus juncoides var. ohwianus, sulfonylurea herbicide-sensitive Lindernia procumbens (Krock.) Philcox, sulfonylurea herbicide-sensitive Lindernia dubia subsp. major Pennell, sulfonylurea herbicide-resistant Scirpus juncoides var. ohwianus, sulfonylurea herbicide-resistant Lindernia procumbens (Krock.) Philcox and sulfonylurea herbicide-resistant Lindernia dubia subsp. major Pennell were sowed therein and cultivated for a prescribed period under flooding conditions. When the plants reached the two-leave stage, the prescribed number of Jiffy Pots where the plants had been grown were transferred to a 150-cm^2 rectangular plastic pot, and water was introduced to a height of 3 cm, and a chemical diluent containing a compound was applied into the pot in an amount of 1 g/are. The chemical diluent was prepared by dissolving 1.5 g compound in 2 L of N,N-dimethylformamide (DMF) containing, 2% (W/V) surfactant Tween™ 20 and then diluting it with water to adjust the total volume to 10 L.

[2] = test system: sulfonylurea herbicide-resistant Lindernia procumbens (Krock.) Philcox; assay: as above; format: in vivo; conditions: 1 g/are, three weeks after treatment, resistant biotype, Tajiri Town, Miyagi Pref.
From the text: as §1

[3] = test system: sulfonylurea herbicide-sensitive Lindernia procumbens (Krock.) Philcox; assay: as above; format: in vivo; conditions: 1 g/are, three weeks after treatment, sensitive biotype, Kyoto Pref.
From the text: as §1

[4] = test system: sulfonylurea herbicide-sensitive Lindernia dubia subsp. major Pennell; assay: as above; format: in vivo; conditions: 1 g/are, three weeks after treatment, sensitive biotype, Makabe Town, Ibaraki Pref.
From the text: as §1

[5] = test system: sulfonylurea herbicide-resistant Scirpus juncoides var. ohwianus; assay: as above; format: in vivo; conditions: 1 g/are, three weeks after treatment, resistant biotype, Iwamisawa City, Hokkaido
From the text: as §1

[6] = test system: sulfonylurea herbicide-sensitive Scirpus juncoides var. ohwianus; assay: as above; format: in vivo; conditions: 1 g/are, three weeks after treatment, sensitive biotype, Kyoto Pref.
From the text: as §1

Structure (SMILES)	R Lindernia dubia subsp. major Pennell (effect index) [1]	R Lindernia procumbens (Krock.) Philcox (effect index) [2]	S Lindernia procumbens (Krock.) Philcox (effect index) [3]	S Lindernia dubia subsp. major Pennell (effect index) [4]	R Scirpus juncoides var. ohwianus (effect index) [5]	S Scirpus juncoides var. ohwianus (effect index) [6]	melting point [°C]
CCNc1ccc2nc(Cl)c(NC(=O)NS(=O)(=O)c3nc(OC)cc(OC)n3)n2n1 [Compound No. 3]	5 (excellent 81 to 100)	5 (excellent 81 to 100)	5 (excellent 81 to 100)	5 (excellent 81 to 100)	5 (excellent 81 to 100)	5 (excellent 81 to 100)	169 to 171
CCc1nc2ccc(N(C)C)nn2c1NC(=O)NS(=O)(=O)c1nc(OC)cc(OC)n1 [Compound No. 4]	5 (excellent 81 to 100)	3 (moderate 41 to 60)	5 (excellent 81 to 100)	5 (excellent 81 to 100)	5 (excellent 81 to 100)	5 (excellent 81 to 100)	174 to 176
COc1cc(OC)nc(NC(=O)NS(=O)(=O)c2c(Cl)nc3ccc(C(C)C)nn23)n1 [Compound No. 40]	5 (excellent 81 to 100)	5 (excellent 81 to 100)	5 (excellent 81 to 100)	5 (excellent 81 to 100)	5 (excellent 81 to 100)	5 (excellent 81 to 100)	
CCCCc1ccc2nc(Cl)c(S(=O)(=O)NC(=O)Nc3nc(OC)cc(OC)n3)n2n1 [Compound No. 41]	5 (excellent 81 to 100)	4 (high 61 to 80)	5 (excellent 81 to 100)	5 (excellent 81 to 100)	5 (excellent 81 to 100)	5 (excellent 81 to 100)	
COc1cc(OC)nc(NC(=O)NS(=O)(=O)c2c(C)nc3cccnn23)n1 [comparison 1, reference compound]	1 (very slight 1 to 20)	0 (none 0)	5 (excellent 81 to 100)	5 (excellent 81 to 100)	2 (slight 21 to 40)	5 (excellent 81 to 100)	
COc1cc(OC)nc(NC(=O)NS(=O)(=O)c2c(Cl)nc3cccnn23)n1 [comparison 2, reference compound]	0 (none 0)	0 (none 0)	5 (excellent 81 to 100)	5 (excellent 81 to 100)	0 (none 0)	5 (excellent 81 to 100)	
